Broadly, the IC50 is the point on the concentration scale where inhibition reaches its midpoint. The low end stands for inhibition by little substance, the high end for a need for much substance.

In assay [1] the target is T1, M-phase inducer phosphatase 1 (Homo sapiens, UniProt P30304).
T1 sequence (P30304 whole entry): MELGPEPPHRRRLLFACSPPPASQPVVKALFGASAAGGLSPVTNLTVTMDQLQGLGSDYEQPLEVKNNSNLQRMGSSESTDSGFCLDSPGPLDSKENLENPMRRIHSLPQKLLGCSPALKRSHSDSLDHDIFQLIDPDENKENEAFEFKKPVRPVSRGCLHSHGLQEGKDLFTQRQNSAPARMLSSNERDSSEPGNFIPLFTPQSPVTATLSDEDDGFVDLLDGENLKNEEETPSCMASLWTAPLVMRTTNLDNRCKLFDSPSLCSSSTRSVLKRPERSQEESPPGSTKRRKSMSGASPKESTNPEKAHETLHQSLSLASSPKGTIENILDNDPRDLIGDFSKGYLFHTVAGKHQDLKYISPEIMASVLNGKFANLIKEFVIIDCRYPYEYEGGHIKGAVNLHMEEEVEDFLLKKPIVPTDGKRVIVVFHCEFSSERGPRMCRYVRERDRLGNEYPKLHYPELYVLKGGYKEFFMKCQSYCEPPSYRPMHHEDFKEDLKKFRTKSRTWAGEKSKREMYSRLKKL
The assay is described as follows: Inhibition of N-terminal 6xHis-tagged human Cdc25A (336-523) catalytic domain expressed in Escherichia coli after 20 mins by fluorescent plate reader assay.

Assay [2] concerns the target T2, M-phase inducer phosphatase 2 (Homo sapiens, UniProt P30305).
T2 sequence (P30305 whole entry): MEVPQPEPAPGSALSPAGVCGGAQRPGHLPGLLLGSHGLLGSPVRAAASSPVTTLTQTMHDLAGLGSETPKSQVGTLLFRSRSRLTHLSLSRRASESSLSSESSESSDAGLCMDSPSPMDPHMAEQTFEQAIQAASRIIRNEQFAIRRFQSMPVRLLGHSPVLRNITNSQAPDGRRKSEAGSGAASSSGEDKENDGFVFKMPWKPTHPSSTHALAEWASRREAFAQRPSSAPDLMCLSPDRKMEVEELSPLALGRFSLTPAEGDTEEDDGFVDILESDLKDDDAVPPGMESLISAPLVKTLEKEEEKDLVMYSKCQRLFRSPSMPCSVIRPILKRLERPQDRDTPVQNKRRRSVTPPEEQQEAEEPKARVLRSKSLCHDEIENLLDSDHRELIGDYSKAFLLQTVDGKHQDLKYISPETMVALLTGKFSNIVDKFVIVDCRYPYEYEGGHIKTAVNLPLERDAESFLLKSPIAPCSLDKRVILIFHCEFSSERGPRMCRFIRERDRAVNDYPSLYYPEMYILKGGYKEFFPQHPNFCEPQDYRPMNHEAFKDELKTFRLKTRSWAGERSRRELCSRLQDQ
Nature of the assay: Inhibition of N-terminal 6xHis-tagged (378-566) catalytic domain of Cdc25B expressed in Escherichia coli after 20 mins by fluorescent plate reader assay.

Consider `Oc1nc(Nc2ccc(Cl)cc2Cl)sc1/C=C1\C=Nc2ccccc21`, for which the IC50 is 12.6 µM in assay [1] and 2.6 µM in assay [2].

`Cc1ccc(/N=C2N=C(O)/C(=C/C=C/c3ccco3)S\2)cc1C`: the half-inhibitory concentration (IC50) is 7.1 µM in assay [1] and 1.8 µM in assay [2].

Regarding `O=C1N=C(Nc2ccc(F)cc2)S/C1=C\c1cccs1`, the IC50 was 30.7 µM in assay [1] and 8.9 µM in assay [2].

In the case of `O=C1N=C(Nc2cc(Cl)cc(Cl)c2)S/C1=C\C=C\c1ccco1`, the half-maximal inhibitory concentration (IC50) in assay [1] amounted to 4.1 µM; in assay [2] it was 2.3 µM.

Turning to `O=C1N=C(Nc2ccc(Cl)cc2Cl)S/C1=C\C=C\c1ccco1`, the IC50 in assay [1] amounted to 6.7 µM; in assay [2] it was 4.5 µM.

In the case of `COc1ccc(-n2c(SCC(=O)c3ccc(O)c(O)c3)nnc2-c2ccc(C)cc2)cc1`, the IC50 in assay [1] turned out to be 9.2 µM; in assay [2], 4.7 µM.

As for `O=C(CSc1nnc(-c2ccc(Cl)cc2)n1-c1ccccc1)c1ccc(O)c(O)c1`, the IC50 was 11.5 µM in assay [1] and 1.6 µM in assay [2].

Consider `O=C1N=C(Nc2cccc(Br)c2)S/C1=C\C=C\c1ccco1`, for which the IC50 in assay [1] stood at 7.7 µM; in assay [2] it was 2.7 µM.

With `Cn1c(SCC(=O)c2ccc([N+](=O)[O-])cc2)nnc1-c1cccc(NC(=O)c2ccccc2F)c1`, the IC50 came out at 19 µM in assay [1] and 5.4 µM in assay [2].

Turning to `CC(=C/c1ccccc1)/C=C1\SC(Nc2cccc(Cl)c2)=NC1=O`, the IC50 in assay [1] was found to be 12.8 µM; in assay [2], 3.3 µM.

`CC(=C/c1ccccc1)/C=C1\SC(Nc2ccc(C)c(C)c2)=NC1=O`: the IC50 in assay [1] was found to be 8.1 µM; in assay [2], 2.3 µM.

Turning to `O=C1N=C(Nc2cccc(O)c2)S/C1=C\c1cccs1`, the 50% inhibitory concentration (IC50) in assay [1] is 7.8 µM; in assay [2], 2.8 µM.

Take `CC(=C/c1ccccc1)/C=C1\SC(Nc2ccccc2Cl)=NC1=O`: the results for the IC50 in assay [1] and in assay [2] were 10.3 µM and 3.9 µM, respectively.

Turning to `Cc1ccc(-c2nnc(SCC(=O)c3ccc(O)c(O)c3)n2Cc2ccco2)cc1`, the IC50 in assay [1] came to 4.7 µM; in assay [2] it was 2.3 µM.

Regarding `CC(=C/c1ccccc1)/C=C1\SC(Nc2cc(Cl)cc(Cl)c2)=NC1=O`, the results for the 50% inhibitory concentration (IC50) in assay [1] and in assay [2] were 5.1 µM and 1.2 µM, respectively.

Regarding `O=C1N=C(Nc2ccc(Cl)cc2)S/C1=C\c1cccs1`, the IC50 was determined as 11.1 µM in assay [1] and 4.4 µM in assay [2].

On to `COc1ccc(-c2nnc(SCC(=O)c3ccc(O)c(O)c3)n2-c2ccccc2)cc1`, for which the IC50 is 6 µM in assay [1] and 1.7 µM in assay [2].

Regarding `O=C1N=C(Nc2cc(Cl)cc(Cl)c2)S/C1=C\c1c[nH]c2ccccc12`, the figures for the IC50 in assay [1] and in assay [2] were 12.7 µM and 2.3 µM, respectively.

As to `Cn1c(SCC(=O)c2ccc(-c3ccccc3)cc2)nnc1-c1ccncc1`, the half-inhibitory concentration (IC50) was found to be 13.1 µM in assay [1] and 4.2 µM in assay [2].

With `Cn1c(SCC(=O)c2ccc([N+](=O)[O-])cc2)nnc1-c1cccc(Cl)c1`, the values for the IC50 in assay [1] and in assay [2] were 11.1 µM and 4.4 µM, respectively.

For the compound `Cc1ccc(-c2nnc(SCC(=O)c3ccc(O)c(O)c3)n2-c2ccccc2)cc1`, the IC50 worked out at 7.1 µM in assay [1] and 2.5 µM in assay [2].

In the case of `Cn1cccc1/C=C1\SC(Nc2ccc(F)cc2)=NC1=O`, the IC50 was 14.3 µM in assay [1] and 3.7 µM in assay [2].

`Cn1c(SCC(=O)c2ccc(-c3ccccc3)cc2)nnc1-c1ccco1`: the IC50 in assay [1] is 13 µM; in assay [2], 2 µM.

On to `O=C1N=C(Nc2ccccc2Cl)S/C1=C\C=C\c1ccco1`, for which the results for the IC50 in assay [1] and in assay [2] were 10.1 µM and 2.1 µM, respectively.

For the compound `CCn1c(SCC(=O)c2ccc(Cl)cc2)nnc1-c1cccnc1`, the values for the 50% inhibitory concentration (IC50) in assay [1] and in assay [2] were 17.2 µM and 6 µM, respectively.

As to `C=Cn1c(SCC(=O)c2ccc(Cl)cc2)nnc1-c1ccco1`, the results for the half-inhibitory concentration (IC50) in assay [1] and in assay [2] were 14.5 µM and 5.2 µM, respectively.

Regarding `Cn1cccc1/C=C1\SC(Nc2ccc(Cl)cc2)=NC1=O`, the IC50 in assay [1] was determined as 15.4 µM; in assay [2], 3.1 µM.

Consider `O=C1N=C(Nc2cccc(Cl)c2)S/C1=C\C=C\c1ccco1`, for which the IC50 in assay [1] was found to be 9.1 µM; in assay [2], 3.2 µM.

Regarding `CC(=C/c1ccccc1)/C=C1\SC(Nc2ccc(Br)cc2)=NC1=O`, the IC50 in assay [1] worked out at 17.3 µM; in assay [2], 5.1 µM.

With `O=C1N=C(Nc2cccc(Cl)c2Cl)S/C1=C\C=C\c1ccco1`, the results for the IC50 in assay [1] and in assay [2] were 6.2 µM and 2.1 µM, respectively.

These data come from ChEMBL document CHEMBL1153036, “Structure-based de novo design and biochemical evaluation of novel Cdc25 phosphatase inhibitors” (Bioorg Med Chem Lett, 2009).
